In patent US6861390B2, “Derivatives of UK-2A” (priority 2001, dated 2005):

Columns and labels:
[1] = tested on: Leptosphaeria nodorum (LEPTNO); assay: Glume Blotch of Wheat, whole plant 24 Hour Protectant (T2); settings: Parastagonospora nodorum; wheat (cultivar Yuma), sprayed at 100 ppm, inoculated after 24 hours; read-out: T2 LEPTNO in vivo 1 Day Protectant, control of fungal infection
[2] = tested on: Phytophthora infestans (PHYTIN); assay: whole plant or invertebrate; settings: in Solanum lycopersicum, 24 h, read-out: T3 PHYTIN in vivo 1 Day Protectant, control of fungal infection
[3] = tested on: Puccinia recondita (PUCCRT); assay: Brown Rust of Wheat, whole plant 24 Hour Protectant (T5); settings: wheat (cultivar Yuma), sprayed at 100 ppm, inoculated after 24 hours, read-out: T5 PUCCRT in vivo 1 Day Protectant, control of fungal infection
[4] = tested on: Stagonospora nodorum (Leptosphaeria nodorum, LEPTNO); assay: microbe, parasite or virus in culture; type: cell-based; settings: Parastagonospora nodorum, read-out: T7 LEPTNO in vitro Growth Inhibition
[5] = tested on: Phytophthora infestans (PHYTIN); assay: microbe, parasite or virus in culture; type: cell-based; settings: in Secale cereale, read-out: T8 PHYTIN in vitro Growth Inhibition
[6] = tested on: Magnaporthe grisea (Pyricularia oryzae, PYRIOR); assay: microbe, parasite or virus in culture; type: cell-based; settings: read-out: T9 PYRIOR in vitro Growth Inhibition
[7] = tested on: Rhizoctonia solani (RHIZSO); assay: microbe, parasite or virus in culture; type: cell-based; settings: read-out: T10 RHIZSO in vitro Growth Inhibition
[8] = tested on: Mycosphaerella graminicola (Septoria tritici, SEPTTR); assay: microbe, parasite or virus in culture; type: cell-based; settings: Zymoseptoria tritici, read-out: T11 SEPTTR in vitro Growth Inhibition
Ustilago maydis (USTIMA) = assay: microbe, parasite or virus in culture; type: cell-based; settings: Mycosarcoma maydis, read-out: T12 USTIMA in vitro Growth Inhibition
[9] = tested on: Erysiphe graminis (ERYSGT); assay: Powdery Mildew of Wheat, whole plant 24 Hour Protectant (T1); settings: Blumeria graminis, in Triticum aestivum, read-out: T1 ERYSGT in vivo 1 Day Protectant, control of fungal infection
Experimental: Compound formulation was accomplished by dissolving technical materials in acetone, with serial dilutions then made in acetone to obtain desired concentrations. Final treatment volumes were obtained by adding 9 volumes 0.01% Triton X-100.
Powdery Mildew of Wheat (Erysiphe graminis—ERYSGT) (24 Hour Protectant): Wheat (cultivar Monon) was grown in a soilless peat-based potting mixture (“Metromix”) and mineral soil (50/50 mix) until the seedlings were 10-20 cm tall. These plants were then sprayed to run-off with the test compound at a rate of 100 ppm. After 24 hours the test plants were inoculated by dusting with conidia from powdery mildew infected wheat plants. The plants were then transferred to the greenhouse until disease developed on the untreated control plants.

[10] = tested on: Septoria tritici (SEPTTR); assay: Leaf Blotch of Wheat, whole plant 24 Hour Protectant (T6); settings: Zymoseptoria tritici; wheat (cultivar Monon), sprayed at 100 ppm, inoculated after 24 hours; read-out: T6 SEPTTR in vivo 1 Day Protectant, control of fungal infection

| SMILES | pest or weed control at 100 ppm [1] | pest or weed control at 100 ppm [2] | pest or weed control at 100 ppm [3] | inhibition at 25 ppm [4] | inhibition at 25 ppm [5] | inhibition at 25 ppm [6] | inhibition at 25 ppm [7] | inhibition at 25 ppm [8] | inhibition at 25 ppm (Ustilago maydis (USTIMA)) | melting point | pest or weed control at 100 ppm [9] | pest or weed control at 100 ppm [10] |
| --- | --- | --- | --- | --- | --- | --- | --- | --- | --- | --- | --- | --- |
| COCOc1c(OC)ccnc1C(=O)N[C@H]1COC(=O)[C@H](Cc2ccccc2)[C@@H](OC(=O)C(C)C)[C@H](C)OC1=O [Compound 4] | 75 to 100% | < 25% | 75 to 100% | > 80% | < 80% | > 80% | < 80% | < 80% | < 80% | 146 to 147 °C | 25 to 74% | – |
| COc1ccnc(C(=O)N[C@H]2COC(=O)[C@H](Cc3ccccc3)[C@@H](OC(=O)C(C)C)[C@H](C)OC2=O)c1OCOCc1ccccc1 [Compound 10] | 75 to 100% | < 25% | 75 to 100% | > 80% | > 80% | < 80% | < 80% | > 80% | < 80% | 56 to 60 °C | < 25% | – |
| COc1ccnc(C(=O)N[C@H]2COC(=O)[C@H](Cc3ccccc3)[C@@H](OC(=O)C(C)C)[C@H](C)OC2=O)c1OCSC [Compound 18] | 75 to 100% | < 25% | 75 to 100% | > 80% | < 80% | > 80% | > 80% | > 80% | < 80% | 146 to 148 °C | < 25% | – |
| COc1ccnc(C(=O)N[C@H]2COC(=O)[C@H](Cc3ccccc3)[C@@H](OC(=O)C(C)C)[C@H](C)OC2=O)c1OCSc1ccccc1 [Compound 19] | 75 to 100% | < 25% | 75 to 100% | > 80% | < 80% | > 80% | > 80% | > 80% | < 80% | 133 to 135 °C | < 25% | – |
| COc1ccnc(C(=O)N[C@H]2COC(=O)[C@H](Cc3ccccc3)[C@@H](OCC(C)C)[C@H](C)OC2=O)c1OCOC(=O)C1CC1 [Compound 56] | 75 to 100% | < 25% | 75 to 100% | > 80% | < 80% | > 80% | < 80% | > 80% | < 80% | – | 75 to 100% | 75 to 100% |
| COCCOC(=O)OCOc1c(OC)ccnc1C(=O)N[C@H]1COC(=O)[C@H](Cc2ccccc2)[C@@H](OCC(C)C)[C@H](C)OC1=O [Compound 57] | 75 to 100% | < 25% | 75 to 100% | > 80% | < 80% | > 80% | < 80% | > 80% | > 80% | – | 75 to 100% | 75 to 100% |
| COCC(=O)OCOc1c(OC)ccnc1C(=O)N[C@H]1COC(=O)[C@H](Cc2ccccc2)[C@@H](OCC(C)C)[C@H](C)OC1=O [Compound 58] | 75 to 100% | < 25% | 75 to 100% | > 80% | > 80% | > 80% | < 80% | > 80% | > 80% | – | 75 to 100% | 75 to 100% |
| CCOCC(=O)OCOc1c(OC)ccnc1C(=O)N[C@H]1COC(=O)[C@H](Cc2ccccc2)[C@@H](OCC(C)C)[C@H](C)OC1=O [Compound 59] | 75 to 100% | < 25% | 75 to 100% | > 80% | > 80% | > 80% | < 80% | > 80% | > 80% | – | 75 to 100% | 75 to 100% |
| CCCO[C@H]1[C@H](C)OC(=O)[C@@H](NC(=O)c2nccc(OC)c2OCOC(=O)COCC)COC(=O)[C@@H]1Cc1ccccc1 [Compound 60] | 75 to 100% | < 25% | 75 to 100% | > 80% | > 80% | > 80% | < 80% | > 80% | > 80% | – | 75 to 100% | 75 to 100% |
| COc1ccnc(C(=O)N[C@H]2COC(=O)[C@H](Cc3ccccc3)[C@@H](OCC(C)C)[C@H](C)OC2=O)c1OCOC(=O)C1CCCC1 [Compound 61] | 75 to 100% | < 25% | 75 to 100% | > 80% | < 80% | > 80% | < 80% | > 80% | > 80% | – | 75 to 100% | 75 to 100% |
| CCCO[C@H]1[C@H](C)OC(=O)[C@@H](NC(=O)c2nccc(OC)c2OCOC(=O)C2CCCC2)COC(=O)[C@@H]1Cc1ccccc1 [Compound 62] | 75 to 100% | < 25% | 75 to 100% | > 80% | < 80% | < 80% | < 80% | > 80% | > 80% | – | 75 to 100% | 75 to 100% |
| CCCC(=O)OCOc1c(OC)ccnc1C(=O)N[C@H]1COC(=O)[C@H](Cc2ccccc2)[C@@H](OCC(C)C)[C@H](C)OC1=O [Compound 63] | 75 to 100% | < 25% | 75 to 100% | > 80% | < 80% | > 80% | < 80% | > 80% | < 80% | – | 75 to 100% | 75 to 100% |
| CCCO[C@H]1[C@H](C)OC(=O)[C@@H](NC(=O)c2nccc(OC)c2OCOC(=O)CCC)COC(=O)[C@@H]1Cc1ccccc1 [Compound 64] | 75 to 100% | < 25% | 75 to 100% | > 80% | < 80% | > 80% | < 80% | > 80% | < 80% | – | 75 to 100% | 75 to 100% |
| CCOCC(=O)OCOc1c(OC)ccnc1C(=O)N[C@H]1COC(=O)[C@H](Cc2ccccc2)[C@@H](OCSC)[C@H](C)OC1=O [Compound 72] | 75 to 100% | < 25% | 75 to 100% | > 80% | < 80% | > 80% | < 80% | > 80% | > 80% | – | 25 to 74% | 25 to 74% |
| COc1ccnc(C(=O)N[C@H]2COC(=O)[C@H](Cc3ccccc3)[C@@H](OCSC)[C@H](C)OC2=O)c1OCOC(=O)C1CCCC1 [Compound 73] | 75 to 100% | < 25% | 75 to 100% | > 80% | < 80% | > 80% | < 80% | > 80% | > 80% | – | 25 to 74% | 75 to 100% |
| COCCOCC(=O)OCOc1c(OC)ccnc1C(=O)N[C@H]1COC(=O)[C@H](Cc2ccccc2)[C@@H](OCSC)[C@H](C)OC1=O [Compound 74] | 75 to 100% | < 25% | 75 to 100% | > 80% | < 80% | > 80% | < 80% | > 80% | > 80% | – | 25 to 74% | 25 to 74% |
